Literature values, collected in patent publication US11654108B1, “Sennoside medicated chews” (MEDICATED CHEWS, LLC, priority 2022, dated 2023).

[1] = after oral administration of sennosides

Substance: sennosides
- metabolites excreted in urine [1]: 3-6%
- sennosides excreted in feces as polymers (polyquinones) [1]: 90%
- unchanged sennosides, sennidins, rheinanthrone and rhein excreted in feces [1]: 2-6%
- absorption in the upper gut / splitting by human digestive enzymes (upper gut, human digestive enzymes): neither absorbed in the upper gut nor split by human digestive enzymes
